Article PMC12259270, “Sensory neuron–expressed FGF13 controls nociceptive signaling in diabetic neuropathy models” (The Journal of Clinical Investigation, 2025)
Residues, ends and D or L forms follow the SMILES beside them. *: point of attachment. Cbz = O=C(OCc1ccccc1)*; OtBu = CC(C)(C)O*

Experiments:
human Nav1.5 = target: T1, human Nav1.5 (Homo sapiens, UniProt Q14524); experiment: Whole-cell patch-clamp, HEK293 cells stably expressing human Nav1.5; type: cell-based; conditions: for Activation / Long-term inactivation, 2nd Pulse / Long-term inactivation, 3rd Pulse / Long-term inactivation, 4th Pulse / Peak Density / Steady state inactivation / Tau (τ): HEK293 Nav1.5
T1 construct: expressed in transfected cells; host or cells: HEK293 stably expressing human Nav1.5
Experimental: Whole-cell patch clamp electrophysiology
HEK293-Nav1.7 cells, HEK293 stably expressing human Nav1.6 (HEK-Nav1.6), HEK293 stably expressing human Nav1.5 (HEK-Nav1.5), human hIPSC-derived sensory neurons (RealDRGTM from Anatomic Incorporated 1020F1-1M) and donor-derived DRG neurons were plated at low density on glass coverslips and processed for whole-cell patch clamp electrophysiology in voltage-clamp and/or current clamp mode. Whole-cell patch electrophysiological experiments were conducted following previously published studies (26). Current densities were obtained by dividing INa amplitude by membrane capacitance. Current –voltage relationships were generated by plotting current density as a function of the […]. Conductance (G Na) was calculated by the […]
where INa is the current amplitude at voltage Vm, and Erev is the Na+ reversal potential.
Activation curves were derived by plotting normalized GNa as a function of test potential and fitted using […]
Where GNa,Max is the maximum conductance, Va is the membrane potential of half-maximal activation, Em is the membrane voltage and k is the slope factor. For steady -state inactivation, normalized current amplitude (INa/INa,Max) at the test potential was plotted as a function of prepulse potential (Vm) and fitted using the […]
Where Vh is the potential of half-maximal inactivation, E m is the membrane voltage, and k is the slope factor.
Transient INa inactivation decay was estimated with the standard exponential equation. Inactivation time constant (tau, τ) was fitted with the following equation: […]
where I(t) is the amplitude of the current at time t and Iss is the steady-state current during a single voltage-step.
The goodness of fitting was determined by correlation coefficient (R), and the cutoff of R was set at 0.85. To observe effects on long-term inactivation (LTI), a four-step protocol was employed during which cells were subjected to four 0 mV, 20 ms depolarization pulses separated by −90 mV, 40 ms recovery intervals. To control for various cell sizes, the current densities were calculated by dividing INa peak current amplitude/membrane capacitance (Cm). To represent the fraction of channels entering into LTI, the peak INa observed during depolarization cycles 2-4 was normalized to the peak INa observed during depolarization cycle 1 (INa/INa,Cycle 1) and plotted as a function of the depolarization cycle.
The cumulative (frequency-dependent) use-dependency was determined by applying 20 pulses with a depolarization to −10 mV (50 ms duration) and 50 ms recovery intervals with a train of 20 pulses at 10 Hz from a holding potential at -70 mV. The current pulses were normalized to the first reco rded pulse and the currents at the 2nd to 20th pulses were compared. The same train was used to record use-dependency at various frequencies […]
The rate of recovery from inactivation was recorded at -80 mV with a standard repriming voltage protocol.
The cells were prepulsed to -20 mV for 20 ms to inactivate all currents, then driven back to the recovery potential (Vrec) for increasing recovery durations before the test pulse to 0 mV. The maximum pulse rate was 0.5 Hz. The […]
follows previous publications (16). The time constants were estimated from single exponential decay to time courses measured at recovery potentials ranging from -140 to -60 mV with the protocol as mentioned above.
Electrophysiological Recordings
HEK293 cells: Electrophysiological recordings in HEK293 stably expressing Nav1.7 (HEK-Nav1.7), Nav1.5 (HEK-Nav1.5) or Nav1.6 (HEK-Nav1.6) were performed at room temperature using a MultiClamp 700B or an Axopatch 200B amplifier (Molecular Devices) after incubating coverslips for 60 minutes either with 0.1% DMSO or 50 μM PW164 or ZL192 in the extracellular solution. The composition of recording solutions consisted of the […]
following salts: extracellular (mM): 140 NaCl, 3 KCl, 1 MgCl2, 1 CaCl2, 10 HEPES, 10 glucose, pH 7.3; […]
intracellular (mM): 130 CH3O3 SCs, 1 EGTA, 10 NaCl, 10 HEPES, pH 7.3. […]

C57BL/6 mice = experiment: Thermal hypersensitivity induced by intrathecal AAV2-FGF13-GFP (Hargreaves); type: in vivo, mouse
Experimental: Next, the in vivo PW164 strategy was applied to test ZL192 activity in mice that received i.t. injection (L4-L6) of either AAV2-shCTRL or AAV2-shFGF13 viral particles (10 μL; Figure 6B).
Experiments were performed on 6- to 12-week-old male C57BL/6 mice (The Jackson Laboratory, Bar Harbor, ME) housed in the AAALAC-accredited facility at the University of Texas Medical Branch. Mice were group-housed with up to 5 mice per cage on a 12-to-12-hour light–dark cycle and had access to water and food ad libitum. All protocols were approved by the Institutional Animal Care and Use Committee (IACUC) at the University of Texas Medical Branch and in accordance with the National Institutes of Health (NIH) guidelines.
PW164 and ZL192 were dissolved in DMSO and saline in a ratio of 1:10. 0.1% capsaicin (10% ethanol, 10% Tween-20 in saline; Sigma-Aldrich). All the compounds were injected at the center of the hind paw. The control group received a DMSO-saline mixture. 0.1% capsaicin was injected at the center of the hind paw and then PW164 (0.07 mg/ml) or DMSO was intradermally administered at the site of capsaicin injection Capsaicin was prepared from 1% (wt/vol) capsaicin stock solution dissolved in 100% ethanol, and 0.1% of diluted stock was made using tween-80 and saline solution at a 1:1:8 ratio. Bupivacaine was prepared from a 1:2 dilution with sterile 0.9% saline and locally injected in the center of the paw at 7 mg/ml.
AAV2 viral particles packaged by the University of North Carolina Gene Therapy Core Facility (viral titer ranging […]
Before intrathecal injections in the lumbar region, mice were maintained in an anesthetizing box with 2% isoflurane to induce unconsciousness. […]
Mechanical sensitivity was assessed using von Frey filaments (VFF 0.1g and 1.0 g force) in mice that were either naïve or received intraplantar ([…].) injection of capsaicin. […]

T1 sequence (Q14524 whole entry): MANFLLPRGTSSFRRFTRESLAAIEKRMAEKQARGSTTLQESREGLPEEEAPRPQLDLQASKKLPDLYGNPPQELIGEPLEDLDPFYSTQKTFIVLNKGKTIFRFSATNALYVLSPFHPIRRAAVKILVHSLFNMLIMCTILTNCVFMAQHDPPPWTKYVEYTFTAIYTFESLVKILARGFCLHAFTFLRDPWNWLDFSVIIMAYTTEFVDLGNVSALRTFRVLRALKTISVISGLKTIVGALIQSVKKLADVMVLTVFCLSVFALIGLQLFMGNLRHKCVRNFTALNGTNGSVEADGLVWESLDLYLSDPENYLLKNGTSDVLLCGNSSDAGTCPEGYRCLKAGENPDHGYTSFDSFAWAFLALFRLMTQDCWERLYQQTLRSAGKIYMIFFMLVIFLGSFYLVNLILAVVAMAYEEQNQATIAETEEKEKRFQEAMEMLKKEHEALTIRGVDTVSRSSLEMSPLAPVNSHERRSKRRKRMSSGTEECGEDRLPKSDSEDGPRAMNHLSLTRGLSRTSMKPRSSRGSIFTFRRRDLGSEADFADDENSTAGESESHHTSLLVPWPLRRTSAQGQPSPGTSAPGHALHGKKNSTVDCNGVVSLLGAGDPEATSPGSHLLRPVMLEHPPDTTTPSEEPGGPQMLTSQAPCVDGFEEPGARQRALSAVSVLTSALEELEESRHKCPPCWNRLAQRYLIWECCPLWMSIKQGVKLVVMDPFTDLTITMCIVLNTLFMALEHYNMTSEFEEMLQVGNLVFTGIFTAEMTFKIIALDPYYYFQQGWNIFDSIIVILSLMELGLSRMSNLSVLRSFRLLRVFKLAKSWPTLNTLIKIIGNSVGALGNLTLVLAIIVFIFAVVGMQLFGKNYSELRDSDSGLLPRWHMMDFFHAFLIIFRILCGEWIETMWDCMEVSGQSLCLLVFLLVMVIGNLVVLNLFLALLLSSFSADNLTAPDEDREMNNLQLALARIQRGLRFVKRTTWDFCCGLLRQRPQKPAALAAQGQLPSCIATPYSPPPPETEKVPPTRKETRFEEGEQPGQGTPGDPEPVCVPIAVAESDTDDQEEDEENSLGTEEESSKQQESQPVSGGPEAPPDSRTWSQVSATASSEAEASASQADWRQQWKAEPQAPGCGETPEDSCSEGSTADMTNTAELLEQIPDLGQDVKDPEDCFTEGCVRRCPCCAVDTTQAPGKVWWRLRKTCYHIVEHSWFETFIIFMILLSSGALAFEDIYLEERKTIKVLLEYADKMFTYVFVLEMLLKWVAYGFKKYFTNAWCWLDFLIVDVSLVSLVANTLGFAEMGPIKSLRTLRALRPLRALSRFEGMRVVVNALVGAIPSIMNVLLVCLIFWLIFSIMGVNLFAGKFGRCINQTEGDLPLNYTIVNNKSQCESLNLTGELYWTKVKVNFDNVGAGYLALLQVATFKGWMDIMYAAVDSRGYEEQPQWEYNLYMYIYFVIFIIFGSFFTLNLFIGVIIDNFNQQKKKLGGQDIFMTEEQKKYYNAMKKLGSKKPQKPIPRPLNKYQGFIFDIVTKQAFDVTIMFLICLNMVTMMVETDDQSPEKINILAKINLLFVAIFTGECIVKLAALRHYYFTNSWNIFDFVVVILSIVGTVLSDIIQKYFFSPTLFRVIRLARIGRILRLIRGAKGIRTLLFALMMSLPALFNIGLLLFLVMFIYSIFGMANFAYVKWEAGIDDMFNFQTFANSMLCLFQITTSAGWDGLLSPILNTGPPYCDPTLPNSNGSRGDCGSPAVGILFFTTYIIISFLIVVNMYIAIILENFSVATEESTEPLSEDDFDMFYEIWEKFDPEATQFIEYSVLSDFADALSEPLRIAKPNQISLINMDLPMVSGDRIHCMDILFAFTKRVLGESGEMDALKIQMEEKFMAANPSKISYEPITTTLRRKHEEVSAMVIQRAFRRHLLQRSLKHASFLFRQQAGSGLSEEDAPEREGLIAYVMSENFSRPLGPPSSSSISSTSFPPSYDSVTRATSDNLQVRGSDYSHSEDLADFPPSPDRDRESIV

For `COC(=O)[C@@H](NC(=O)[C@H](CCC(=O)OC(C)(C)C)NC(=O)[C@H](CC(C)C)NC(=O)[C@@H]1CCCN1C(=O)OCc1ccccc1)C(C)C` [PW164] (Cbz-PLE(OtBu)V-OMe), the Activation (human Nav1.5; FGF13-GFP + PW164) was −37.38 ± 2.1 mV, the “Long-term inactivation, 2nd Pulse” value (human Nav1.5; FGF13-GFP + PW164) was −89.1 ± 1.71 % maximal Na+ current and the “Long-term inactivation, 3rd Pulse” value (human Nav1.5; FGF13-GFP + PW164) was −86.58 ± 1.69 % maximal Na+ current. For the same molecule, the “Long-term inactivation, 4th Pulse” value (human Nav1.5; FGF13-GFP + PW164) was −84.72 ± 1.83 % maximal Na+ current, the Peak Density (human Nav1.5; FGF13-GFP + PW164) was −203.0 ± 15.6 pA/pF and the Steady state inactivation (human Nav1.5; FGF13-GFP + PW164) was −75.9 ± 2.1 mV. The “Tau (τ)” value (human Nav1.5; FGF13-GFP + PW164) was 0.90 ± 0.04 ms, the Activation (human Nav1.5; GFP + PW164) was −38.11 ± 1.8 mV and the “Long-term inactivation, 2nd Pulse” value (human Nav1.5; GFP + PW164) was −91.7 ± 1.27 % maximal Na+ current. For the same molecule, the “Long-term inactivation, 3rd Pulse” value (human Nav1.5; GFP + PW164) was −85.98 ± 2.18 % maximal Na+ current, the “Long-term inactivation, 4th Pulse” value (human Nav1.5; GFP + PW164) was −84.62 ± 2.28 % maximal Na+ current and the Peak Density (human Nav1.5; GFP + PW164) was −314.9 ± 17.9 pA/pF. For the same molecule, the Steady state inactivation (human Nav1.5; GFP + PW164) was −82.7 ± 1.5 mV, the “Tau (τ)” value (human Nav1.5; GFP + PW164) was 1.12 ± 0.07 ms and the “activity on Nav1.5 currents” value (human Nav1.5; Nav1.5-expressing HEK293 cells alone or with FGF13-1b or FGF13-1a) was “inactive”. For the same molecule, the “duration of rescue in AAV2-FGF13-GFP mice” value (C57BL/6 mice; PW164 5 μL, 0.7 mg/mL) was “up to 2.5 hours”, the “thermal hypersensitivity in AAV2-FGF13-GFP mice” value (C57BL/6 mice; bupivacaine 7 mg/mL (5 μL), Suppl Fig 15B) was “Complete recovery” and the “thermal hypersensitivity in AAV2-FGF13-GFP mice” value (C57BL/6 mice; day 68, PW164 5 μL, 0.7 mg/mL) was “partial rescue”.
